From patent EP4789680A1, “NOVEL PACE4 INHIBITOR AND USE THEREOF IN ANTI-OSTEOARTHRITIS” (Inflamax Pharmaceuticals Limited, priority 2023, dated 2025)
Each block holds one molecule with its values, some of them ahead of it. Where a SMILES comes first, the peptide text is derived from it. Where no end group is shown, it is not given here. [ ]: non-standard residue; d: D form. ξ: configuration not given here. Abu(1-amidino-4-piperidyl) = N=C(N)N1CCC(CC[C@H](N)C(=O)O)CC1; Phe(4-guanidino) = N=C(N)Nc1ccc(C[C@H](N)C(=O)O)cc1; Phe(4-CF3) = N[C@@H](Cc1ccc(C(F)(F)F)cc1)C(=O)O; dThr(3ξ) = CC(O)[C@@H](N)C(=O)O

What was measured:
[1] = tested on: traumatic osteoarthritis model; assay: MMT surgery traumatic osteoarthritis model, test for therapeutic efficacy; type: in vivo, Sprague Dawley (SD) rats; conditions: compared to the OA group; intra-articular injection on day 3 and day 10 after MMT surgery; sacrificed day 14
Description: In this example, a traumatic osteoarthritis model was established by performing a medial meniscus tear (MMT) surgery to verify the therapeutic effect of the PACE4 inhibitory peptides on OA. In the test for therapeutic efficacy, the injections were administered on day 3 and day 10 after the surgical modeling (i.e., a total of 2 administrations).
Specifically, in the test for therapeutic efficacy, 24 Sprague Dawley (SD) rats were divided into 3 groups (including a control group, an OA modeling group (surgery group), and an OA modeling + therapeutic administration group (surgery group + drug intervention)), with 8 rats per group. For the OA modeling + therapeutic administration group, intra-articular injections were administered on day 3 and day 10 after MMT surgery. Rats in each group were sacrificed on day 14 after modeling, and joint tissues were collected. Each PACE4 inhibitory peptide was tested individually to determine the therapeutic effect of each PACE4 inhibitory peptide. Among them, the polypeptide Ac-R-F-K-R-NH2 (control molecule) was selected as a control example.
Cartilage tissue was collected from each group as samples. The collected cartilage tissue samples were decalcified according to conventional procedures in the art, then embedded in paraffin, and sectioned at a thickness of 7 µm. Safranin O-fast green staining was performed, and the cartilage degeneration was assessed using OARSI scoring. In addition, TRAP staining was performed to determine the subchondral bone resorption in rats before and after MMT surgery and during treatment with the PACE4 inhibitory peptide.

[2] = tested on: traumatic osteoarthritis model; assay: MMT surgery traumatic osteoarthritis model, test for preventive efficacy; type: in vivo, SD rats; conditions: compared to the OA group; intra-articular injection 3 days and 1 day before MMT surgery; 0.1 mg/kg; sacrificed day 7
Description: In this example, a traumatic osteoarthritis model was established by performing a medial meniscus tear (MMT) surgery to verify the preventive effect of the PACE4 inhibitory peptides on OA. In the test for preventive efficacy, the PACE4 inhibitory peptide was administered via intra-articular injection 3 days and 1 day before the modeling surgery (i.e., a total of 2 administrations). In the following examples, the dosage of PACE4 inhibitory peptide was 0.1 mg/kg animal body weight.
Specifically, in the test for preventive efficacy, 24 SD rats were divided into 3 groups (including a control group, an OA modeling group (surgery group), and an OA modeling + preventive administration group (surgery group + drug intervention)), with 8 rats per group. For the OA modeling + preventive administration group, intra-articular injections were administered 3 days and 1 day before MMT surgery. Rats in each group were sacrificed on day 7 after modeling, and joint tissues were collected. Each PACE4 inhibitory peptide was tested individually to determine the preventive effect of each PACE4 inhibitory peptide. Among them, the polypeptide Ac-R-F-K-R-NH2 (control molecule) was selected as a control example. […]

PACE4 [3] = biological target: T1, PACE4 (Homo sapiens, UniProt P29122); assay: PACE4 enzyme inhibition experiment (fluorogenic substrate, competitive inhibition); type: biochemical; conditions: substrate pyroGlu-Arg-Val-Lys-Arg-methyl-coumaryl-7-amide 100 µM, pH 6.5, 37°C, 60 min
T1 sequence (P29122 150-969): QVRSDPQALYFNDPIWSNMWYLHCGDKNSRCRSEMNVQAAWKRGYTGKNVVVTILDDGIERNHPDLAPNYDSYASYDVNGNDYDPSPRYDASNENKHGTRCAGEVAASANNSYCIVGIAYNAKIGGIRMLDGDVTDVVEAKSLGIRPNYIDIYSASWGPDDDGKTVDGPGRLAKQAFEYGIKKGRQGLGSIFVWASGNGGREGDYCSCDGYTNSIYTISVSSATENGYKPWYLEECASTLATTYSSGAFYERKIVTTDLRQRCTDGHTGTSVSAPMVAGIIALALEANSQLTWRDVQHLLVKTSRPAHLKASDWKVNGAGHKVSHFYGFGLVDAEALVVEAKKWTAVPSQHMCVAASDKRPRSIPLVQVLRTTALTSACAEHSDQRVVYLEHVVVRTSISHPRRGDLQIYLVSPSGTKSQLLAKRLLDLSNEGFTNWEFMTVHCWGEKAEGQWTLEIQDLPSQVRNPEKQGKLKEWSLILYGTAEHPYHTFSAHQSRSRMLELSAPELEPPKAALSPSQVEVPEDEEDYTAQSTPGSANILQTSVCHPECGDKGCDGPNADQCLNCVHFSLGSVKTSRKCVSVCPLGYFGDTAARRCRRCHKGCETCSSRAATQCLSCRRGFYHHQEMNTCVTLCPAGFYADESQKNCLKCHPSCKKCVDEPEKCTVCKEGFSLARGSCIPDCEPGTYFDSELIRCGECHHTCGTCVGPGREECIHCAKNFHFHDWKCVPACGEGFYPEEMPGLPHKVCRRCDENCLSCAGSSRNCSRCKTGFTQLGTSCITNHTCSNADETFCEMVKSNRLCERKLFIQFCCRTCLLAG
Description: The PACE4 inhibitory peptides obtained from the above example were subjected to in vitro assay of PACE4 inhibitory effect. The specific steps were as follows: the PACE4 enzyme inhibition experiment was performed in a solution containing 20 mM Bis-Tis at pH 6.5, 1 mM CaCl2, and 1.8 mg/mL BSA. All assays were performed using pyroGlu-Arg-Val-Lys-Arg-methyl-coumaryl-7-amide (Bachem, CA) (100 µM) as the substrate. The assay was conducted at 37°C for 60 min. A Gemini EM 96-well fluorescence spectrometer (Molecular Devices, CA) (Ex: 370 nm, Em: 460 nm) was used. The PACE4 inhibitory peptide involved in the present patent was added to the test solution at different concentrations for competitive inhibition assay to determine the IC50 value of the peptide.

PACE4 [4] = biological target: T2, PACE4 (UniProt P29122 150-969, limits assumed); assay: cell-based or functional assay
T2 sequence (looked up): T1 sequence (P29122 150-969)

Molecule: CC(=O)N[C@@H](CCCNC(=N)N)C(=O)N[C@@H](Cc1ccccc1)C(=O)N[C@@H](CCCCN)C(=O)N[C@@H](CCCNC(=N)N)C(N)=O [Ac-R-F-K-R-NH2] (Ac-RFKR-NH2)
- OARSI score reduced, therapeutic test [1]: 10%
- OARSI score reduced, preventive test [2]: 4%

Molecule: CC(=O)N[C@@H](CCCNC(=N)N)C(=O)N[C@@H](CCCNC(=N)N)C(=O)N[C@@H](CCC1CCN(C(=N)N)CC1)C(=O)N[C@@H](CCCCN)C(=O)N[C@@H](CCCNC(=N)N)C(=O)N[C@@H](C(N)=O)C(C)O (stereo partly drawn) [Ac-R-R-A(4-Pip)-K-R-dT-NH2] (Ac-RR[Abu(1-amidino-4-piperidyl)]KR[dThr(3ξ)]-NH2)
- IC50 (PACE4 [3]): 90 nM

Molecule: CC(=O)N[C@H](CCCNC(=N)N)C(=O)N[C@@H](CCCNC(=N)N)C(=O)N[C@@H](Cc1ccc(C(F)(F)F)cc1)C(=O)N[C@@H](CCCCN)C(=O)N[C@@H](CCCNC(=N)N)C(=O)N[C@@H](C(N)=O)[C@H](C)O [Ac-dR-R-F(4-CF3)-K-R-dT-NH2] (Ac-[dR]R[Phe(4-CF3)]KR[dT]-NH2)
- OARSI score reduced, therapeutic test [1]: 34.6%

Molecule: CC(=O)N[C@H](CCCNC(=N)N)C(=O)N[C@@H](CCCNC(=N)N)C(=O)N[C@@H](Cc1ccc(NC(=N)N)cc1)C(=O)N[C@@H](CCCCN)C(=O)N[C@@H](CCCNC(=N)N)C(=O)N[C@@H](C(N)=O)[C@H](C)O [Ac-dR-R-F(4-Guan)-K-R-dT-NH2] (Ac-[dR]R[Phe(4-guanidino)]KR[dT]-NH2)
- OARSI score reduced, therapeutic test [1]: 38.5%

Molecule: CC(=O)N[C@H](CCCNC(=N)N)C(=O)N[C@@H](CCCNC(=N)N)C(=O)N[C@@H](Cc1ccccc1)C(=O)N[C@@H](CCCCN)C(=O)N[C@@H](CCCNC(=N)N)C(=O)N[C@@H](C(N)=O)[C@H](C)O [Ac-dR-R-F-K-R-dT-NH2] (Ac-[dR]RFKR[dT]-NH2)
- OARSI score reduced, therapeutic test [1]: 28%

B1: Ac-R-F(4-CF3)-K-R-dT-NH2 (peptide)
peptide: Ac-R[Phe(4-CF3)]KR[dT]-NH2
SMILES: CC(=O)N[C@@H](CCCNC(=N)N)C(=O)N[C@@H](Cc1ccc(C(F)(F)F)cc1)C(=O)N[C@@H](CCCCN)C(=O)N[C@@H](CCCNC(=N)N)C(=O)N[C@@H](C(N)=O)[C@H](C)O
- IC50 (µM), PACE4 enzyme inhibition, fluorogenic substrate pyroGlu-Arg-Val-Lys-Arg-methyl-coumaryl-7-amide (PACE4 [4]): 0.35 µM

B3: Ac-R-F(4-CF3)-K-R-T-NH2 (peptide)
peptide: Ac-R[Phe(4-CF3)]KRT-NH2
SMILES: CC(=O)N[C@@H](CCCNC(=N)N)C(=O)N[C@@H](Cc1ccc(C(F)(F)F)cc1)C(=O)N[C@@H](CCCCN)C(=O)N[C@@H](CCCNC(=N)N)C(=O)N[C@H](C(N)=O)[C@@H](C)O
- IC50 (µM), PACE4 enzyme inhibition, fluorogenic substrate pyroGlu-Arg-Val-Lys-Arg-methyl-coumaryl-7-amide (PACE4 [4]): 0.74 µM

Now from value to molecule:

- IC50 (PACE4 [3]): 90 nM
Molecule: CC(=O)N[C@@H](CCCNC(=N)N)C(=O)N[C@@H](CCCNC(=N)N)C(=O)N[C@@H](Cc1ccc(C(F)(F)F)cc1)C(=O)N[C@@H](CCCCN)C(=O)N[C@@H](CCCNC(=N)N)C(=O)N[C@@H](C(N)=O)[C@H](C)O [Ac-R-R-F(4-CF3)-K-R-dT-NH2] (Ac-RR[Phe(4-CF3)]KR[dT]-NH2)

- IC50 (PACE4 [3]): 20 nM
Molecule: C[C@H](O)[C@@H](NC(=O)[C@H](CCCNC(=N)N)NC(=O)[C@H](CCCCN)NC(=O)[C@H](Cc1ccc(C(F)(F)F)cc1)NC(=O)[C@H](CCCNC(=N)N)NC(=O)[C@@H](CCCNC(=N)N)NC(=O)[C@@H]1CCCN1)C(N)=O [P-dR-R-F(4-CF3)-K-R-dT-NH2] (H-P[dR]R[Phe(4-CF3)]KR[dT]-NH2)

- IC50 (PACE4 [3]): 20 nM
Molecule: C[C@H](O)[C@@H](NC(=O)[C@H](CCCNC(=N)N)NC(=O)[C@H](CCCCN)NC(=O)[C@H](Cc1ccccc1)NC(=O)[C@H](CCCNC(=N)N)NC(=O)[C@@H](CCCNC(=N)N)NC(=O)[C@@H]1CCCN1)C(N)=O [P-dR-R-F-K-R-dT-NH2] (H-P[dR]RFKR[dT]-NH2)

- IC50 (PACE4 [3]): 70 nM
Molecule: C[C@H](O)[C@@H](NC(=O)[C@H](CCCNC(=N)N)NC(=O)[C@H](CCCCN)NC(=O)[C@H](Cc1ccccc1)NC(=O)[C@H](CCCNC(=N)N)NC(=O)[C@@H](CCCNC(=N)N)NC(=O)[C@H]1CCCN1)C(N)=O [dP-dR-R-F-K-R-dT-NH2] (H-[dP][dR]RFKR[dT]-NH2)

- IC50 (PACE4 [3]): 20 nM
Molecule: C[C@H](O)[C@@H](NC(=O)[C@H](CCCNC(=N)N)NC(=O)[C@H](CCCCN)NC(=O)[C@H](Cc1ccc(C(F)(F)F)cc1)NC(=O)[C@H](CCCNC(=N)N)NC(=O)[C@@H](CCCNC(=N)N)NC(=O)[C@H]1CCCN1)C(N)=O [dP-dR-RF(4-CF3)-K-R-dT-NH2, dP-dR-R-F(4-CF3)-K-R-dT-NH2] (H-[dP][dR]R[Phe(4-CF3)]KR[dT]-NH2)

- IC50 (µM), PACE4 enzyme inhibition, fluorogenic substrate pyroGlu-Arg-Val-Lys-Arg-methyl-coumaryl-7-amide (PACE4 [4]): 0.02 µM
B2: P-dR-R-F-K-R-dT-NH2 (peptide)
peptide: P[dR]RFKR[dT]-NH2
modifications: N-terminus assumed
SMILES: C[C@H](O)[C@@H](NC(=O)[C@H](CCCNC(=N)N)NC(=O)[C@H](CCCCN)NC(=O)[C@H](Cc1ccccc1)NC(=O)[C@H](CCCNC(=N)N)NC(=O)[C@@H](CCCNC(=N)N)NC(=O)[C@@H]1CCCN1)C(N)=O

- IC50 (µM), PACE4 enzyme inhibition, fluorogenic substrate pyroGlu-Arg-Val-Lys-Arg-methyl-coumaryl-7-amide (PACE4 [4]): 0.07 µM
B4: dP-dR-R-F-K-R-dT-NH2 (peptide)
peptide: [dP][dR]RFKR[dT]-NH2
modifications: N-terminus assumed
SMILES: C[C@H](O)[C@@H](NC(=O)[C@H](CCCNC(=N)N)NC(=O)[C@H](CCCCN)NC(=O)[C@H](Cc1ccccc1)NC(=O)[C@H](CCCNC(=N)N)NC(=O)[C@@H](CCCNC(=N)N)NC(=O)[C@H]1CCCN1)C(N)=O
